Mass density data for four compounds are collected here from the NIST ThermoML archive (doi:10.1021/je800503d).

Each structure is given as a SMILES string. Numbers after ± are expanded uncertainties.

For this data set the following is noted: 298.15 K; 101.33 kPa; Liquid; Vibrating tube method.

Turning to `CCO` [ethanol], the mass density (usually mass per unit of volume) is given as 785.04 ± 0.13 kg/m3. The same measure for `COCCOCCOCCOCCOC` [2,5,8,11,14-pentaoxapentadecane]: 1006.2 ± 0.24 kg/m3; for `COCCOCCOCCOC` [2,5,8,11-tetraoxadodecane]: 980.42 ± 0.23 kg/m3. The same measure for `CCCCCCCCCCCCCCCC` [hexadecane]: 770.01 ± 0.24 kg/m3.
